Experimental data from patent US11925643B2, “Toll-like receptor 4 (TLR4) inhibitors and use thereof” (MOR RESEARCH APPLICATIONS LTD., priority 2018, dated 2024).
Non-standard residues stand in square brackets, D forms with d. Residues, ends and D or L forms follow the SMILES beside them. 1Nal = N[C@@H](Cc1cccc2ccccc12)C(=O)O

Experiments:
[1] = test system: primary cardiomyocytes; assay: CK and LDH release by primary cardiomyocytes under hypoxia (MI like); format: cell-based, Rat; conditions: 10 μM, FIGS. 2A, 2B
Experimental: (§1) Rat hearts (1-2 days old) were removed under sterile conditions and washed three times in phosphate-buffered saline (PBS) to remove excess blood cells. The hearts were minced and then gently agitated in RBD (a solution of proteolytic enzymes (Biological Institute, Ness-Ziona, Israel) prepared from fig tree extract, and diluted 1:100 in Ca^2+- and Mg^2+-free PBS) for a few cycles of 10 min each. Dulbecco's modified Eagle's medium (Biological Industries, Kibbutz Beit Haemek, Israel) containing 10% horse serum was added to supernatant suspensions containing the dissociated cells. The mixture was centrifuged at 1400 rpm for 4 min. The supernatant phase was discarded, and the cells were re-suspended. The cell suspension was diluted to 1.0×10^6 cells/ml, unless stated otherwise, and 1.5 ml of the suspension was placed in 35-mm plastic culture dishes collagen- or gelatin-coated, or on coated cover glasses. The cultures were incubated in a humidified atmosphere of 5% CO2 and 95% air at 37° C.
Using a vacuum pump, the oxygen rich air was evacuated from an incubator containing plates with cell cultures, and a 100% Argon atmosphere was let in, while maintaining a temperature of 37° C. The cell cultures were washed with PBS twice to remove glucose from the medium. Hypoxic treated cells were cultures in PBS without glucose. These cells lasted for 180 minutes.
(§2) Primary cardiomyocytes which were obtained by method described above, were treated with exemplary decoy peptides described herein. After 30 minutes of incubation, sepsis like (LPS treatment for 6 hours), or myocardial infarction (MI) like (hypoxia for 3 hours) conditions were imposed to measure the release of CK and LDH to the medium and determine the potential cardioprotective effect of the tested decoy peptides. Cytotoxicity and level of cell damage were assessed by spectrophotometric measurement of lactate dehydrogenase (LDH) and creatine kinase (CK) activities (at 30° C.). Results are presented as CK and LDH release in arbitrary units (a.u.)
(§3) Activity of LDH and CK was determined in the cell-culture medium (25 μl) transferred into 96-well plates, using commercial L-LDH/CK kits (such as those manufactured, e.g., by Sigma-Aldrich, BioVision™ or Thermo Fisher Scientific®).
(§4) Primary cardiomyocytes were treated with peptides and peptidomimetics of SEQ ID NOs:1-7 provided at concentrations ranging from 1 μM to 20 μM. Following 30 minutes of incubation, sepsis like (LPS treatment for 6 hours) or MI like (hypoxia for 3 hours) conditions were induced to determine the potential cardioprotective effect of the tested compounds. Creatine kinase (CK) and lactate dehydrogenase (LDH) activity were assayed to determine the level of cellular damage and cell protection effect. The experimental procedure is described in Materials and Methods above. Results are presented as CK and LDH release in arbitrary units (a.u.).

[2] = test system: TLR2 mRNA; assay: TLR2 mRNA level by RT-qPCR in hypoxic cardiomyocytes (negative control); format: cell-based; conditions: hypoxic conditions
Experimental: (§5) Real-time RT-PCR experiments were performed in duplicates on an ABI 7900 instrument (Applied Biosystems™) using Taqman™ Master Mix (Applied Biosystems™). The average threshold cycles (Ct) of the duplicates were used to calculate the relative expression levels of the following genes: TLR4 (Applied Biosystems™ assay primer ID: Mm00569848_m1 Tlr4), TLR2 (assay primer ID: Mm01769726_m1 Tlr2), TNF-α (assay primer ID: Mm00443260_g1 Tnf) and IL-1β (assay primer ID: Mm00434228_m1 II1b) in vitro and in vivo following hypoxia or ischemia, respectively. The reference gene was TBP and the primer used was derived from mouse TATA-box binding protein (Applied Biosystems™ assay primer ID: Mm00446973_m1 Tbp). Amounts of TLR2, TLR4, TNF-α and IL-1β mRNAs in each sample were calculated relative to TBP mRNA, based on the corresponding Cts, as Relative Quantity (RQ) values, and normalized taking as 1 a randomly selected sample of the control group (TBP mRNA). Calculation were performed using the Applied Biosystems Analysis™ software (StepOnePlus V2.2.2). All mRNA scores are presented in arbitrary units.
Next, peptidomimetics of SEQ ID NOs:1 and 2 were tested for their ability to affect the expression of TLR4. The level of TLR4 mRNA was measured by real-time reverse transcriptase polymerase chain reaction (RT-qPCR) method as described in Materials and Methods. […]

[3] = target: T1, TLR4 (Homo sapiens, UniProt O00206); assay: FACS analysis of TLR4 expressed by macrophages exposed to LPS; format: cell-based; conditions: 10 μM
T1 construct: FACS analysis to test the expression of TLR4 protein by macrophages under LPS treatment; endogenous in cells; host or cells: human peripheral-blood monocytes differentiated into macrophages with M-CSF
T1 sequence (O00206 24-839): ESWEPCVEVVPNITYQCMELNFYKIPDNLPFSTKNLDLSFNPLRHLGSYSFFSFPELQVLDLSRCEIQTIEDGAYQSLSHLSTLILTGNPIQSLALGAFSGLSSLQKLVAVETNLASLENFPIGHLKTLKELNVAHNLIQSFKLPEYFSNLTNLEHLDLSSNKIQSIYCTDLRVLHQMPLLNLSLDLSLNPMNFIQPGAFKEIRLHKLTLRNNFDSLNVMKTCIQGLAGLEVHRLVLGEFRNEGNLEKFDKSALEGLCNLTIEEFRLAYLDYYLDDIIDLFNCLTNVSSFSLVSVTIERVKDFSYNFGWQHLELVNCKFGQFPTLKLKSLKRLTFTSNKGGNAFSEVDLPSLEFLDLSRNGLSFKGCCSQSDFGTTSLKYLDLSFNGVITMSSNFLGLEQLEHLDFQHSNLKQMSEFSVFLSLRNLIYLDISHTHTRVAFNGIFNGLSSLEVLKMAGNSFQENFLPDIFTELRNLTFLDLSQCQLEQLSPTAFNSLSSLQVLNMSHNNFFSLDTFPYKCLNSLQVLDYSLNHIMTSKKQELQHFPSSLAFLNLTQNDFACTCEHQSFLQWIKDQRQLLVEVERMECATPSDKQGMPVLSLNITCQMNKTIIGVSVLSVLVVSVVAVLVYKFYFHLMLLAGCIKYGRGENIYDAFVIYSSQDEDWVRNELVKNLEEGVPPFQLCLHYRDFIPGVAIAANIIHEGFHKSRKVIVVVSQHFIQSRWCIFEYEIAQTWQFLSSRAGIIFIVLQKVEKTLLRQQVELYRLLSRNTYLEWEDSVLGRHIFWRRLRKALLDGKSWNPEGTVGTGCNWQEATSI
Experimental: Flow cytometry is an analytical cell-biology technique that utilizes light to count and profile cells in a heterogenous fluid mixture. Flow cytometry analysis was used to evaluate binding of antibodies to TLR4 presenting cells. In this assay, an anti-TLR4 antibody was added to a monocytes suspension and cells which bound the antibody were visualized by a fluorescently labeled secondary antibody that bound to the anti-TLR4 antibody (Ab). Accordingly, samples were first “labeled” with the anti-TLR4 antibody, then incubated with Fluor® 488 conjugated to a secondary Ab for TLR4 (CD284) positive cells visualization.
In order to confirm the specificity of binding, and further in order to correct for non-specific or background staining, isotypes control mouse IgGs were added to cell suspensions at the same concentration as the anti-TLR4 Abs. To deduct the non-specific or background staining from the positive staining due to direct Ab binding to the antigen, the level of background staining was assessed by the use of the same fluorochrome as that used for staining the anti-TLR4 Ab.
Peripheral blood (30 ml) was obtained for the isolation of monocytes. Monocytes were purified by density gradient centrifugation as described above, and/or by adherence to plastic in RPMI 1640 medium supplemented with 10% fetal bovine serum (FBS) and antibiotics. Peripheral blood mononuclear cells (PBMCs) (10^6 cells/ml) were first seeded into 24-well plates (0.5 ml per well), after 2 hours, non-adherent cells were removed by several washes with warm PBS.
Monocytes freshly isolated either by density gradient centrifugation by adherence differentiated into macrophages in complete RPMI 1640 medium supplemented with human recombinant macrophage colony stimulating factor (100 ng/ml) for 6 days. To confirm macrophage cell lineage, direct immunostaining was performed with an antibody directed against CD11b/mac1 (Biolegend® Inc., San Diego, Calif., USA). Eighty percent (80%) of positive staining was observed by flow cytometry analysis. The proportion of TLR4 in this separated cell fraction was examined by FACS analysis using, as isotype control, mouse IgG2a IsoControl (eBioscience™ #53-4724-80), and mouse anti-human CD284 Alexa Fluor® 488 Clone FITA125 secondary Ab (Isotype IgG2a. eBioscience™ #53-9917-41), which recognizes the human TLR4 (also known as CD284) cell surface antigen. Cells were analyzed in a BC Gallios Flow Cytometer (Beckman Coulter, Indianapolis Ind., USA) and were initially gated on the basis of forward and side scatter characteristics. Kaluza Software was used to analyze the results. Results are expressed as mean fluorescence intensity (MFI) and also as normalized to control. […]

[4] = test system: TLR4 mRNA; assay: TLR4 mRNA level by RT-qPCR in hypoxic cardiomyocytes; format: cell-based; conditions: hypoxic conditions
Experimental: as §5
Next, peptidomimetics of SEQ ID NOs:1 and 2 were tested for their ability to affect the expression of TLR4. The level of TLR4 mRNA was measured by real-time reverse transcriptase polymerase chain reaction (RT-qPCR) method as described in Materials and Methods. The possible effect of both compounds on expression levels of TLR2 mRNA was used as a negative control.

[5] = test system: primary cardiomyocytes; assay: CK and LDH release by primary cardiomyocytes under LPS treatment (sepsis like); format: cell-based, Rat; conditions: LPS system; 10 μM
Experimental: as §1, §2, §3, §4

[6] = test system: IκB; assay: IκB protein level by Western blot in hypoxic cardiomyocytes; format: cell-based; conditions: normalized to β-actin
Experimental: Frozen tissue/cell cultures of liver or heart were pulverized under liquid nitrogen and placed in a homogenization buffer ([…] phosphate buffer, […] sucrose, […] EDTA, […] phenylmethylsulfonyl fluoride (PMSF), and 0.1% vol/vol tergitol, pH 7.5). Myocytes from cell cultures were homogenized in lysis buffer.
Homogenates were centrifuged at 12K rpm for 10 minutes at 4° C., the supernatant was isolated, and protein levels were visualized by immunoblotting with antibodies. Briefly, proteins (60 μg/sample) were separated using SDS-PAGE gel (12%-15%) under denaturing conditions and electro-transferred (blotted) onto nitrocellulose (Bio-Rad) for 1 hour at 100 V. Membranes were blocked with 5% nonfat milk in Tris-buffered saline with 0.1% Tween® 20 (TBST) for 1 hour at room temperature. Primary antibodies were used at a 1:200-1:1000 concentration in TBST with 5% nonfat milk overnight at 4° C. Immunodetection of β-actin/GPDH was performed as an internal control. Dye 800/680 secondary antibodies were added at a concentration of 1:15000 for 1 hour at room temperature (LI-COR® Biosciences, NE, USA). Detection was carried out with LI-CORE® Odyssey® imaging system. Quantification of signals was carried out with the Odyssey® program.
The mechanism of action of peptidomimetics of SEQ ID NOs:1, 2 and 12 was studied in vitro in cardiomyocytes, under hypoxic conditions, by determining the expression level of the IκB gene, which is regulated by activation of TLR4, and by measuring the TLR4 mRNA levels. In addition, TLR4 expression level was measured in macrophage (derived from monocytes) treated with LPS.
IκB protein level was determined by Western blot as described in Material and Methods. The amount of IκB was normalized via-a-vis the amount of β-actin serving as the loading control (the β-actin is coded by a housekeeping gene and its level is expected to remain constant under any experimental conditions).

CC(=O)N[C@@H](Cc1ccccc1)C(=O)N[C@@H](C)C(=O)N[C@@H](CCC(=O)O)C(N)=O [SEQ ID NO:8, (S)-4-((S)-2-((S)-2-acetamido-3-phenylpropanamido)propanamido)-5-amino-5-oxopentanoic acid] (Ac-Phe-Ala-Glu-NH2)
cell protective effect (CK and LDH release) [1]: substantial cell protective effect

CC(=O)N[C@H](C(=O)N[C@@H](Cc1ccccc1)C(=O)N[C@@H](C)C(=O)N[C@@H](CCC(=O)O)C(N)=O)C(C)C [SEQ ID NO:2, (4S,7S,10S,13S)-7-benzyl-13-carbamoyl-4-isopropyl-10-methyl-2,5,8,11-tetraoxo-3,6,9,12-tetraazahexadecan-16-oic acid] (Ac-VFAE-NH2)
TLR2 mRNA expression level [2]: relatively unaffected | TLR4 expression level ([3]; 30 min before LPS (100 ng/ml or 20 μg/ml), 4 hours): toward baseline levels | lowering the expression of TLR4 in the presence of LPS, compared with SEQ ID NO: 25 ([3]; low and high LPS): more effective | TLR4 mRNA expression level [4]: significantly decreased

CC(C)[C@H](NC(=O)CN[C@@H](C)C(C)(C)C)C(=O)N[C@@H](Cc1ccccc1)C(=O)N[C@@H](C)C(N)=O [SEQ ID NO:17, (S)-N-((S)-1-(((S)-1-amino-1-oxopropan-2-yl)amino)-1-oxo-3-phenylpropan-2-yl)-2-(2-(((S)-3,3-dimethylbutan-2-yl)amino)acetamido)-3-methylbutanamide]
cellular protection / cytoprotective effect (CK and LDH release) [5]: significant cytoprotective effect

CC[C@H](C)[C@H](NC(C)=O)C(=O)N[C@H](C(=O)NC(C(=O)N[C@@H](C)C(N)=O)c1cccc2ccccc12)C(C)C (stereo partly drawn) [SEQ ID NO:12, (2S,3S)-2-acetamido-N-((2S)-1-((2-(((S)-1-amino-1-oxopropan-2-yl)amino)-1-(naphthalen-1-yl)-2-oxoethyl)amino)-3-methyl-1-oxobutan-2-yl)-3-methylpentanamide]
IκB level [6]: high levels

CC(=O)N[C@H](C(=O)N[C@@H](Cc1cccc2ccccc12)C(=O)N[C@@H](C)C(=O)N[C@@H](CCC(=O)O)C(N)=O)C(C)C [SEQ ID NO:19, (4S,7S,10S,13S)-13-carbamoyl-4-isopropyl-10-methyl-7-(naphthalen-1-ylmethyl)-2,5,8,11-tetraoxo-3,6,9,12-tetraazahexadecan-16-oic acid] (Ac-V[1Nal]AE-NH2)
cellular protection / cytoprotective effect (CK and LDH release) [5]: significant cytoprotective effect

CC(=O)N[C@@H](Cc1ccccc1)C(=O)NCCC(=O)N[C@@H](CCC(=O)O)C(N)=O [SEQ ID NO:9, (S)-4-(3-((S)-2-acetamido-3-phenylpropanamido)propanamido)-5-amino-5-oxopentanoic acid]
cell protective effect (CK and LDH release) [1]: substantial cell protective effect

CC(=O)NC(C(=O)N[C@@H](C)C(=O)N[C@@H](CCC(=O)O)C(N)=O)c1cccc2ccccc12 (stereo partly drawn) [SEQ ID NO:11, (4S)-4-((2S)-2-(2-acetamido-2-(naphthalen-1-yl)acetamido)propanamido)-5-amino-5-oxopentanoic acid]
cell protective effect (CK and LDH release) [1]: substantial cell protective effect
